This is an account of results in patent publication US8399480B2, “Hydroxymethyl pyrrolidines as beta 3 adrenergic receptor agonists” (Merck Sharp & Dohme Corp., priority 2008, dated 2013).

One assay deals with T1, human β3 adrenergic receptor (Homo sapiens, UniProt P13945).
T1 construct: expressed in transfected cells; host or cells: Chinese hamster ovary (CHO) cells, stably transfected
T1 sequence (P13945 whole entry): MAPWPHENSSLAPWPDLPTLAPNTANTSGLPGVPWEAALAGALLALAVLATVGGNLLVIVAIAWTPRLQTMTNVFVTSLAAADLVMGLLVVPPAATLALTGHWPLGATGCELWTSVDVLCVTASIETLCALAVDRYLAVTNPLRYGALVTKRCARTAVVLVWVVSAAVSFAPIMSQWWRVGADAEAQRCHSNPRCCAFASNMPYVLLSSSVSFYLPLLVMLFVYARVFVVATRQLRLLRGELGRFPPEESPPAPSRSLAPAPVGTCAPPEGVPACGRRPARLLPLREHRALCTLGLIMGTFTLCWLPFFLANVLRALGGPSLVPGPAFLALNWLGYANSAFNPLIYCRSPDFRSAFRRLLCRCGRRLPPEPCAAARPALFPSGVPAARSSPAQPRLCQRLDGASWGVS
The experiment in a line: Functional assay: cAMP production (LANCE TR-FRET) in CHO cells stably transfected with cloned β3 adrenergic receptor. Type of assay: cell-based. To be noted: Table 4; human β3 functional activity; read-out: Human β Binding. An outline of the steps: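 Agonist-stimulated cAMP in CHO cells stably expressing human β3 receptor, 6,000 cells per well in HBSS/HEPES/0.1% BSA with 0.6 mM IBMX, 30 min at room temperature. LANCE TR-FRET readout converted to cAMP via standard curve; maximal stimulation defined with isoproterenol.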
Background: cAMP levels reflect the balance of adenylyl cyclase and phosphodiesterase activity.
Turning to `O=C(Cc1nnn[nH]1)Nc1ccc(C[C@@H]2CC[C@H]([C@H](O)c3ccccc3)N2)cc1` [Example 75], the EC50 was in the range of 11 to 100 nM. The same measure, in the same setting: the figure for `O=C(CN1CCOC1=O)Nc1ccc(C[C@@H]2CC[C@H]([C@H](O)c3ccccc3)N2)cc1` [Example 90] is 11 to 100 nM.

For the compound `O=C(CC1NC(=O)NC1=O)Nc1ccc(C[C@@H]2CC[C@H]([C@H](O)c3ccccc3)N2)cc1` (stereo partly shown) [Example 69], the EC50 was 101 to 1000 nM. On the same count and under the same terms, in the case of `O=C(Cn1nc2ccccc2n1)Nc1ccc(C[C@@H]2CC[C@H]([C@H](O)c3ccccc3)N2)cc1` [Example 5] it was 1 to 10 nM.

With `Cc1cn(CC(=O)Nc2ccc(C[C@@H]3CC[C@H]([C@H](O)c4ccccc4)N3)cc2)c(=O)[nH]c1=O` [Example 52], the EC50 lay within 1 to 10 nM. Regarding `O=C(Cc1nnc(-c2cscn2)[nH]1)Nc1ccc(C[C@@H]2CC[C@H]([C@H](O)c3ccccc3)N2)cc1` [Example 24], the EC50 lay within 1 to 10 nM. In the case of `O=C(Nc1ccc(C[C@@H]2CC[C@H]([C@H](O)c3ccccc3)N2)cc1)c1ccccc1N1CCCC1` [Example 7], the EC50 was in the range of 101 to 1000 nM. Regarding `O=C(Cc1ccncc1)Nc1ccc(C[C@@H]2CC[C@H]([C@H](O)c3ccccc3)N2)cc1` [Example 45], the EC50 fell in the range of 1000 to 3000 nM.

On to `O=C(Cc1n[nH]c(=O)[nH]1)Nc1ccc(C[C@@H]2CC[C@H]([C@H](O)c3ccccc3)N2)cc1` [Example 68], for which the EC50 was 11 to 100 nM. On the same count and under the same terms, in the case of `O=C(Cc1nnc(-c2ccccc2)[nH]1)Nc1ccc(C[C@@H]2CC[C@H]([C@H](O)c3ccccc3)N2)cc1` [Example 22] it was below 1 nM; in that of `O=C(Cn1cnnn1)Nc1ccc(C[C@@H]2CC[C@H]([C@H](O)c3ccccc3)N2)cc1` [Example 77], 11 to 100 nM; in that of `O=C(Cn1c(=O)[nH]c2ccccc2c1=O)Nc1ccc(C[C@@H]2CC[C@H]([C@H](O)c3ccccc3)N2)cc1` [Example 50], below 1 nM. On to `O=C(Cn1nc(Cc2ccccc2)c2ccccc2c1=O)Nc1ccc(C[C@@H]2CC[C@H]([C@H](O)c3ccccc3)N2)cc1` [Example 18], for which the EC50 lay in the range of 1 to 10 nM. For `O=C(Cn1c(=O)[nH]c(=O)c2ccccc21)Nc1ccc(C[C@@H]2CC[C@H]([C@H](O)c3ccccc3)N2)cc1` [Example 57], the EC50 lay in the range of 1 to 10 nM.

Staying with this assay, now noted: Table 5; read-out: Human β3 Functional.
In the case of `CC(C(=O)Nc1ccc(C[C@@H]2CC[C@H]([C@H](O)c3ccccc3)N2)cc1)n1nncc1C(N)=O` (single isomer, unassigned) [Example 198], the EC50 is 11 to 100 nM. As for `CC(C(=O)Nc1ccc(C[C@@H]2CC[C@H]([C@H](O)c3ccccc3)N2)cc1)c1nccs1` (single isomer, unassigned) [Example 200], the EC50 is below 1 nM. Same read-out and setting: in the case of `O=C(Nc1ccc(C[C@@H]2CC[C@H]([C@H](O)c3ccccc3)N2)cc1)C1CCc2ccc(=O)[nH]c21` (single isomer, unassigned) [Example 134] it was 101 to 1000 nM; in that of `CC(C(=O)Nc1ccc(C[C@@H]2CC[C@H]([C@H](O)c3ccccc3)N2)cc1)n1cccnc1=O` (single isomer, unassigned) [Example 160], 1 to 10 nM. Regarding `C[C@@H](C(=O)Nc1ccc(C[C@@H]2CC[C@H]([C@H](O)c3ccccc3)N2)cc1)c1csc(N)n1` [Example 104], the EC50 is below 1 nM. On the same count and under the same terms, in the case of `O=C(Nc1ccc(C[C@@H]2CC[C@H]([C@H](O)c3ccccc3)N2)cc1)C1CCc2ccccc2C1` (single isomer, unassigned) [Example 109] it was 1000 to 3000 nM. For `CC(C(=O)Nc1ccc(C[C@@H]2CC[C@H]([C@H](O)c3ccccc3)N2)cc1)c1ccccn1` (single isomer, unassigned) [Example 204], the EC50 lay within 1 to 10 nM.

On to `CC(C(=O)Nc1ccc(C[C@@H]2CC[C@H]([C@H](O)c3ccccc3)N2)cc1)n1nccn1` (single isomer, unassigned) [Example 178], for which the EC50 lay within 1 to 10 nM. Still for that read-out and setting: the figure for `COC(=O)c1cnnn1C(C)C(=O)Nc1ccc(C[C@@H]2CC[C@H]([C@H](O)c3ccccc3)N2)cc1` (single isomer, unassigned) [Example 195] is 1 to 10 nM. On the same count and under the same terms, in the case of `O=C(Nc1ccc(C[C@@H]2CC[C@H]([C@H](O)c3ccccc3)N2)cc1)C1CCc2ccccc21` (single isomer, unassigned) [Example 110] it was 11 to 100 nM; in that of `CC(C(=O)Nc1ccc(C[C@@H]2CC[C@H]([C@H](O)c3ccccc3)N2)cc1)n1nncc1C(N)=O` (single isomer, unassigned) [Example 199], 1 to 10 nM. Same read-out and setting: in the case of `O=C(O)c1nc2c(s1)CCC2C(=O)Nc1ccc(C[C@@H]2CC[C@H]([C@H](O)c3ccccc3)N2)cc1` (single isomer, unassigned) [Example 142] it was 101 to 1000 nM; in that of `CC(C(=O)Nc1ccc(C[C@@H]2CC[C@H]([C@H](O)c3ccccc3)N2)cc1)n1cnnn1` (single isomer, unassigned) [Example 173], 1 to 10 nM. Take `O=C(Nc1ccc(C[C@@H]2CC[C@H]([C@H](O)c3ccccc3)N2)cc1)C1CCCc2ccnn21` (single isomer, unassigned) [Example 157]: the EC50 lay within 11 to 100 nM. Same read-out and setting: in the case of `CC(C(=O)Nc1ccc(C[C@@H]2CC[C@H]([C@H](O)c3ccccc3)N2)cc1)n1cc(C(N)=O)nn1` (single isomer, unassigned) [Example 192] it was 1 to 10 nM. In the case of `CC(C(=O)Nc1ccc(C[C@@H]2CC[C@H]([C@H](O)c3ccccc3)N2)cc1)n1ccnn1` (single isomer, unassigned) [Example 182], the EC50 was 11 to 100 nM.

With `COCCC(C(=O)Nc1ccc(C[C@@H]2CC[C@H]([C@H](O)c3ccccc3)N2)cc1)n1cccn1` (single isomer, unassigned) [Example 223], the EC50 was 1 to 10 nM. Same read-out and setting: the figure for `COC(=O)c1cn(C(C)C(=O)Nc2ccc(C[C@@H]3CC[C@H]([C@H](O)c4ccccc4)N3)cc2)nn1` (single isomer, unassigned) [Example 188] is 1 to 10 nM. For `Cc1nc2c(s1)CCC2C(=O)Nc1ccc(C[C@@H]2CC[C@H]([C@H](O)c3ccccc3)N2)cc1` (single isomer, unassigned) [Example 119], the EC50 was below 1 nM.

`O=C(Nc1ccc(C[C@@H]2CC[C@H]([C@H](O)c3ccccc3)N2)cc1)C1CCCc2ccccc21` (single isomer, unassigned) [Example 113]: the EC50 lay within 101 to 1000 nM. Still for that read-out and setting: the figure for `CC(C(=O)Nc1ccc(C[C@@H]2CC[C@H]([C@H](O)c3ccccc3)N2)cc1)n1cnnn1` (single isomer, unassigned) [Example 172] is 1 to 10 nM; for `Nc1nc2c(s1)CCCC2C(=O)Nc1ccc(C[C@@H]2CC[C@H]([C@H](O)c3ccccc3)N2)cc1` (single isomer, unassigned) [Example 117] it is below 1 nM.

Still in this assay, the particulars now being: Table 6; read-out: Human β3 Functional.
For `Nc1nc2c(s1)CCCC2C(=O)Nc1ccc(CC2CCC(C(O)c3ccccc3)N2)cc1` (single isomer, unassigned) [Example 227], the EC50 was in the range of 101 to 1000 nM.

Staying with this assay, now noted: Table 7; β3AR-cAMP; read-out: Human β3 Functional.
For `Cc1nn(C)c(Cl)c1S(=O)(=O)Nc1ccc(C[C@@H]2CC[C@H]([C@H](O)c3ccccc3)N2)cc1` [Example 247], the EC50 was 1000 to 3000 nM. Still for that read-out and setting: the figure for `O=S(=O)(Nc1ccc(C[C@@H]2CC[C@H]([C@H](O)c3ccccc3)N2)cc1)c1ccc(-n2cccn2)cc1` [Example 240] is 101 to 1000 nM.

The assay is the same for the next values; noted with them: Table 8; read-out: Human β3 Functional.
As for `O=C(NCc1ccccc1F)Nc1ccc(C[C@@H]2CC[C@H]([C@H](O)c3ccccc3)N2)cc1` [Example 254], the EC50 fell in the range of 101 to 1000 nM.

Still in this assay, the particulars now being: Table 9; read-out: Human β^3 Functional.
For the compound `CC(NS(=O)(=O)Cc1ccccc1)C(=O)Nc1ccc(C[C@@H]2CC[C@H]([C@H](O)c3ccccc3)N2)cc1` (stereo partly shown) [Example 273], the EC50 was 11 to 100 nM.

As for `CC(C(=O)Nc1ccc(C[C@@H]2CC[C@H]([C@H](O)c3ccccc3)N2)cc1)N(C)C(=O)c1ccccn1` (stereo partly shown) [Example 265], the EC50 is 101 to 1000 nM.

The assay is the same for the next values; noted with them: Table 10; β3AR-cAMP; read-out: Human β3 Functional.
For the compound `Nc1nc2c(s1)CCC2C(=O)Nc1ccc(CC2CCC(C(O)c3cccc(F)c3)N2)cc1` (single isomer, unassigned) [Example 276], the EC50 fell in the range of 11 to 100 nM. Consider `O=C(Nc1ccc(C[C@@H]2CC[C@H]([C@H](O)c3cccc(F)c3)N2)cc1)[C@H]1CCc2scnc21` [Example 278], for which the EC50 fell in the range of 11 to 100 nM. Turning to `O=C(Nc1ccc(CC2CCC(C(O)c3cccc(F)c3)N2)cc1)C1CCc2scnc21` (stereo not shown) [Example 279], the EC50 is below 1 nM.

Still in this assay, the particulars now being: Table 11; read-out: Human β3 Functional.
For the compound `O=C(Nc1ccc(C[C@@H]2CC[C@H]([C@H](O)c3ccc(F)cc3)N2)cc1)[C@@H]1CCc2scnc21` [Example 284], the EC50 was below 1 nM.

For the compound `CC(C(=O)Nc1ccc(CC2CCC(C(O)c3ccc(F)cc3)N2)cc1)c1cscn1` (single isomer, unassigned) [Example 285], the EC50 fell in the range of 11 to 100 nM.

Staying with this assay, now noted: given as a range; cAMP, CHO cells; read-out: human β3 functional activity.
As for `CC(C(=O)Nc1ccc(C[C@@H]2CC[C@H]([C@H](O)c3cccc(F)c3)N2)cc1)c1cscn1` (single isomer, unassigned) [Example 274], the EC50 lay within 11 to 100 nM.

For `Nc1nc(CC(=O)Nc2ccc(C[C@H]3CC[C@H]([C@H](O)c4ccccc4)N3)cc2Br)cs1` [Example 313, 2-(2-Amino-1,3-thiazol-4-yl)-N-[2-bromo-4-({(2R,5R)-5-[(R)-hydroxy(phenyl)methyl]pyrrolidin-2-yl}methyl)phenyl]acetamide], the EC50 lay within 101 to 1000 nM.

Still in this assay, the particulars now being: human β3 functional activity, shown as ranges; Table 13; read-out: Human β3 Functional.
Turning to `CC(C(=O)Nc1ccc(CC2CCC(C(O)c3cccc(Cl)c3)N2)cc1)c1cscn1` (single isomer, unassigned) [Example 302], the EC50 fell in the range of 1 to 10 nM. Same read-out and setting: in the case of `O=C(Cn1ncccc1=O)Nc1ccc(C[C@@H]2CC[C@H]([C@H](O)c3cccc(Cl)c3)N2)cc1` [Example 305] it was 11 to 100 nM.

Still in this assay, the particulars now being: human β3 functional activity, shown as ranges; Table 14; read-out: Human β3 Functional.
Regarding `Nc1nc2c(s1)CCC2C(=O)Nc1ccc(CC2CCC(C(O)c3cccc(F)c3)N2)cc1` (single isomer, unassigned) [Example 306], the EC50 is below 1 nM.
